Assay results taken from patent US20130296311A1, “INHIBITORS OF HCV NS5A” (PRESIDIO PHARMACEUTICALS, INC., priority 2010, published 2013).
Read-outs that look alike come from different tables or passages of the source.

Tested on: HCV 1b_Huh-Luc/Neo-ET cell line persistently expressing a bicistronic genotype 1b replicon in Huh 7 cells
Assay: HCV replicon assay (luciferase readout, 72 h)
Assay type: cell-based, HCV genotype 1b
Conditions: Hepatitis C virus
Procedure, shortened: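 Huh 7 cells carrying a bicistronic genotype 1b luciferase/neo replicon received compound in triplicate the day after plating. After 72 h, replicon levels were read as Bright-Glo luciferase activity, expressed as % of control; EC50 was fitted with a four-parameter logistic and determined several times.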

[1] = Huh-7, read-out: Inhibition of HCV genotype 1b
[2] = Huh-7, 72 h, read-out: Inhibition of HCV genotype 1b

SMILES: COC(=O)NC(C(=O)N1CCC[C@H]1c1nc2ccc(C#Cc3ccc4cc(-c5cnc([C@@H]6CCCN6C(=O)[C@H](NC(=O)OC)c6ccccc6)[nH]5)ccc4n3)cc2[nH]1)C(C)C (stereo partly shown) [Compound 1289]
- EC50 [1]: < 1 nM

SMILES: COC(=O)N[C@H](C(=O)N1CCC[C@H]1c1ncc(-c2ccc(C#Cc3ccc(-c4cnc([C@H](C)NC(=O)[C@@H](c5ccccc5)N(C)C)[nH]4)cc3)cc2)[nH]1)C(C)C [Compound 983]
- EC50 [2]: < 1 nM

SMILES: COC(=O)N[C@@H](C(=O)N1CCC[C@H]1c1ncc(C#Cc2ccc(C#Cc3cnc([C@@H]4CCCN4C(=O)[C@@H](c4ccccc4)N4CCOCC4)[nH]3)cc2)[nH]1)c1ccccc1 [Compound 313]
- EC50 [2]: < 1 nM

SMILES: COC(=O)N[C@@H](C(=O)N1CCC[C@H]1c1ncc(-c2ccc(C#Cc3ccc(-c4cnc([C@@H]5CCCN5C(=O)[C@H](NC(=O)N5CCCCC5)c5ccccc5)[nH]4)cc3)cc2)[nH]1)c1ccccc1 [Compound 242]
- EC50 [2]: < 1 nM

SMILES: COC(=O)N[C@H](C(=O)N1CCC[C@H]1c1ncc(-c2ccc(C#Cc3ccc(-c4cnc([C@@H]5CCCN5C(=O)[C@@H](NC(=O)OC)C(C)C)[nH]4)cc3)cc2)[nH]1)C(C)C [Compound 266]
- EC50 [2]: < 1 nM

SMILES: C[C@@H](NC(=O)OC(C)(C)C)C(=O)N1CCC[C@H]1c1ncc(-c2ccc(C#Cc3ccc(-c4cnc([C@@H]5CCCN5C(=O)[C@@H](C)NC(=O)OC(C)(C)C)[nH]4)cc3)cc2)[nH]1 [Compound 151]
- EC50 [2]: 10 to 999 nM

SMILES: CC[C@H](C)[C@H](NC(=O)OC)C(=O)N1CCC[C@H]1c1ncc(-c2ccc(C#Cc3ccc4nc([C@@H]5CCCN5C(=O)[C@@H](NC(=O)OC)[C@@H](C)CC)[nH]c4n3)cc2)[nH]1 [Compound 1251]
- EC50 [1]: < 1 nM

SMILES: O=C(N[C@@H](C(=O)N1CCC[C@H]1c1ncc(-c2ccc(C#Cc3ccc(-c4cnc([C@@H]5CCCN5C(=O)[C@H](NC(=O)N5CC[C@H](O)C5)c5ccccc5)[nH]4)cc3)cc2)[nH]1)c1ccccc1)N1CC[C@H](O)C1 [Compound 245]
- EC50 [2]: < 1 nM

SMILES: COC(=O)N[C@H](C(=O)N1CCC[C@H]1c1nc2c([nH]1)-c1ccc(C#Cc3ccc(-c4cnc([C@@H]5CCCN5C(=O)[C@H](NC(=O)OC)c5ccccc5)[nH]4)cc3F)cc1CC2)C(C)C [Compound 1098]
- EC50 [2]: < 1 nM

SMILES: CCN(CC)C(=O)c1cc(-c2cnc([C@@H]3CCCN3C(=O)[C@@H](NC(=O)OC)C(C)C)[nH]2)ccc1C#Cc1ccc(-c2cnc([C@@H]3CCCN3C(=O)[C@@H](NC(=O)OC)C(C)C)[nH]2)cc1 [Compound 1209]
- EC50 [1]: < 1 nM

SMILES: CC(C)(C)OC(=O)N[C@@H](C(=O)N1CCC[C@H]1c1ncc(C#Cc2ccc(-c3cnc([C@@H]4CCCN4C(=O)[C@H](NC(=O)OC(C)(C)C)c4ccccc4)[nH]3)cc2)[nH]1)c1ccccc1 [Compound 99]
- EC50 [2]: < 1 nM

SMILES: COC(=O)N[C@@H](C(=O)N1CCC[C@H]1c1ncc(-c2ccc(C#Cc3ccc(-c4cnc([C@@H]5CCCN5C(=O)[C@H](NC(=O)N5CCC[C@@H]5CO)c5ccccc5)[nH]4)cc3)cc2)[nH]1)c1ccccc1 [Compound 254]
- EC50 [2]: < 1 nM

SMILES: COC(=O)N[C@@H](C(=O)N[C@@H](C)c1ncc(-c2ccc(C#Cc3ccc(-c4cnc([C@H](C)NC(=O)[C@H](NC(=O)OC)C(C)C)[nH]4)cc3)cc2)[nH]1)C(C)C [Compound 950]
- EC50 [2]: < 1 nM

SMILES: COC(=O)N[C@H](C(=O)N1CCN(C(=O)OC)C[C@H]1c1ncc(-c2ccc(C#Cc3ccc4nc([C@@H]5CCCN5C(=O)[C@@H](NC(=O)OC)C(C)C)[nH]c4c3)cc2)[nH]1)C(C)C [Compound 1228]
- EC50 [1]: < 1 nM

SMILES: COC[C@@H]1CCCN1C(=O)N[C@@H](C(=O)N1CCC[C@H]1c1ncc(-c2ccc(C#Cc3ccc(-c4cnc([C@@H]5CCCN5C(=O)[C@H](NC(=O)OC)c5ccccc5)[nH]4)cc3)cc2)[nH]1)c1ccccc1 [Compound 260]
- EC50 [2]: < 1 nM

SMILES: COC(=O)N[C@@H](C(=O)N1CCC[C@H]1c1ncc(-c2ccc(C#Cc3ccc(-c4cnc([C@@H]5CCCN5C(=O)[C@H](NC(=O)OC)c5ccccc5)[nH]4)c(F)c3)cc2)[nH]1)c1ccccc1 [Compound 1013]
- EC50 [2]: < 1 nM
